Tests used:
HaCaT cells = assay: Glucosamine uptake assay in HaCaT cells; assay type: cell-based, human; settings: 0.1 μM; for Uptake rate (glucosamine): 48 h treatment; for Percentage (%) of control glucosamine uptake: relative to control
Experimental: In glucosamine uptake test, HaCaT cells were seeded into 24-well plate at a density of 3×10^4 cells/well and cultured for 24 h. The cells were then treated in the absence (solvent control) or presence of various concentrations of astragalosides for another 48 h. The treated cells were then washed twice with PBS and incubated in glucose and serum free medium (GSFM). After 2 h, the cells were replaced with fresh GSFM containing 0.2 μCi of [^14C]-Glucosamine (American Radiolabelled Chemicals Inc, ARC, St. Louis, Mo., USA). At the designated time interval, the cells were washed twice with GSFM containing cold glucosamine and then lysed in 200 μL 2% SDS. Cell lysates were centrifuged at 15000 g for 15 min. Intracellular uptaken glucosamine was determined by transferring 10 μL of the cell lysate to filter-bottemed UniFilter plates (Perkim-Elmer) and counted. Protein concentration of the samples was measured using the BCA protein assay kit as described above. Glucosamine accumulated in the cells was calculated and normalized to protein concentration and uptake rate was expressed as counts per minute per microgram of cell protein (cpm/min/μg).

collagen I [1] = assay: Collagen I expression in human HaCaT cells (western blot); assay type: cell-based; settings: relative to 0 μM = 1.00
Experimental: (§1) The Spontaneously transformed human keratinocyte cell lines HaCaT cells were grown at 37° C. in a humidified incubator under 5% CO2 and 95% air in culture medium such as Dulbecco Modified Eagle Medium (DMEM) supplemented with 10% Fetal Bovine Serum (FBS), 100 IU/mL penicillin, 100 μg/mL of streptomycin, 2 mM sodium pyruvate and 1% Non-Essential Amino Acids (NEAA). The culture medium was replaced every other day. After confluence, the cells were subcultured following trypsinization. For subcultures cells were harvested after brief treatment with 0.1% trypsin/ethylenediaminetetraacetic acid (EDTA) solution and seeded at a dilution of 1:10. Cells between passages 12 and 45 were used for studies. The cells were seeded and incubated for 24 h before treated with the astragalosides for 24 h. Control cultures were maintained in medium supplemented with vehicle (dimethyl sulfoxide (DMSO) 0.1%). No growth and differentiation effects of DMSO were observed under these culture conditions.
(§2) The cells were treated with pure compounds such as astragaloside I (AS 1), astragaloside II (AS2), astragaloside III (AS3), astragaloside IV (AS4), astragaloside VI (AS6), isoastragaloside I (isoAS1), isoastragaloside II (isoAS2), and cycloastragenol 6-O-β-D-glucopyranose (AA) at concentrations of 0-10 μM. Alternatively, the cells were also treated with the crude extracts, such as butanol fraction and water insoluble fraction of Astragalus membranaceus at concentrations of 0, 1, 10, and 40 μg/mL. The cells were treated with the indicated compounds or the extracts for 24 h before harvested for analysis of collagen I and III expressed in the whole cell extract or secreted into the culture medium.
(§3) Western blot analysis was carried out on both of cultured medium and cell lysates. The cells were plated on 6-cm dishes at a density of 1×10^6 cells/dish for 24 h prior to treatment with indicated concentrations of astragalus triterpenoids as indicated for another 48 h. The conditioned culture mediums were then centrifuged, 2-fold concentrated and collected for assay of collagens and MMPs secreted into the culture medium. The cells were washed and lysed in 0.2 mL of lysis buffer (1% NP-40, 50 mM Tris-HCl, pH 7.4, 180 mM NaCl, 1 mM EDTA, 1 mM PMSF, 1 mM NaF, 10 mM Na3VO4) for 30 min at 4° C. After centrifuging at 17500 g for 15 min, the supernatants of cell lysate were also collected. Protein concentration of the samples were measured using the bicinchoninic acid (BCA) protein assay kit according to the manufacturer's protocol (Pierce, Rockford, Ill., USA). Equal amount of protein samples of concentrated conditioned medium (100 μg) or cell lysate supernatants (50 μg) were mixed with an appropriate volume of 4×SDS sampling buffer and separated by 8% SDS-PAGE gel. The protein bands separated in the SDS-PAGE gel were blotted onto a polyvinylidene fluoride (PVDF) membrane. The blotted PVDF membrane was washed twice and blocked in freshly prepared Tris-buffered saline (TBS) containing 0.1% Tween-20 and 7% skim milk (TBST) for 2 h at room temperature. The PVDF membrane was then incubated with either antibodies against collagen I and III or the housekeeping protein α-tubulin (Santa Cruz Biotechnology, Santa Cruz, Calif.) for 18 h at 4° C. Horseradish peroxidase-conjugated anti-goat antibody was used as secondary antibody. Signals were visualized by an enhanced chemiluminescence kit (Clonetech, Palo Alto, Calif., USA) followed by exposure to X-ray films.
Results shown represent the quantitated data from western blot analysis. […] The collagen I was also over-expressed in the human HaCaT cells treated with 40 μg/mL of astragaloside extract.

collagen III [2] = assay: Collagen III expression and secretion in human HDF cells (western blot); assay type: cell-based; settings: relative to 0 = 1.00
Experimental: (§4) Primary human dermal fibroblasts cells (HDF) were purchased from Cascade Biologics (Portland, Oreg., USA) and cultured in medium 106 supplemented with 10% fetal bovine serum (FBS), 100 IU/mL penicillin, 100 μg/mL of streptomycin. The cells from passages 4 to 10 were used for this study. Culture medium was replaced every other day. After confluence, the cells were subcultured following trypsinization. For subcultures cells were harvested after brief treatment with 0.1% trypsin/EDTA solution and seeded at a dilution of 1:10. The cells were seeded at 1×10^5 cells in 6-well culture plate for 24 h before treated with astragalosides or crude extracts, such as butanol fraction and water insoluble fraction of Astragalus membranaceus for the indicated time periods. Control cultures were maintained in medium supplemented with vehicle (dimethyl sulfoxide, DMSO, 0.1%). No growth and differentiation effects of DMSO were observed under these culture conditions.
as §2, §3

collagen III [3] = assay: Collagen III expression and secretion in human HaCaT cells (western blot); assay type: cell-based; settings: relative to 0 = 1.00
Experimental: as §1, §2, §3
The collagen III was also over-expressed in the human HaCaT cells treated with different doses (0.01, 0.1 and 1 μM) of the astragalosides, such as AS1, AS2 and AS3. Similarly, the collagen III was over-expressed in the human HaCaT cells treated with various dosages (1, 10 and 40 μg/mL) of the crude extract as shown in Table 1B. On the other hand, the amount of collagen III secreted into the medium was measured to determine the effect on cellular release of collagen III. […]

collagen I [4] = assay: Collagen I expression and secretion in human HDF cells (western blot); assay type: cell-based; settings: relative to 0 = 1.00
Experimental: as §4, §2, §3
The collagen expression in the human HDF cells was also determined. […] And Collage I was over-expressed in the cells treated with various doses (1, 10, 40 μg/mL) of the crude extracts, such as butanol fraction and water insoluble fraction of Astragalus membranaceus.

Molecule | Uptake rate (glucosamine) (HaCaT cells) [CPM/μg protein] | Percentage (%) of control glucosamine uptake (HaCaT cells) [%] | Collagen I in cell (collagen I [1]; 0.01 μM) | Collagen I in cell (collagen I [1]; 0.1 μM) | Collagen I in cell (collagen I [1]; 1 μM) | Collagen III in medium (collagen III [2]; 0.01 μM) | Collagen III in medium (collagen III [2]; 0.1 μM) | Collagen III in medium (collagen III [2]; 1 μM) | Collagen III in cell (collagen III [3]; 0.01 μM) | Collagen III in cell (collagen III [3]; 0.1 μM) | Collagen III in cell (collagen III [3]; 1 μM) | Collagen I in cell (collagen I [4]; 0.01 μM) | Collagen I in medium (collagen I [4]; 0.01 μM) | Collagen I in cell (collagen I [4]; 0.1 μM) | Collagen I in medium (collagen I [4]; 0.1 μM) | Collagen I in cell (collagen I [4]; 1 μM) | Collagen I in medium (collagen I [4]; 1 μM) | Collagen III in medium (collagen III [3]; 0.01 μM) | Collagen III in medium (collagen III [3]; 0.1 μM) | Collagen III in medium (collagen III [3]; 1 μM) | further results
CC(=O)O[C@@H]1[C@@H](O)[C@H](O[C@H]2CC[C@]34C[C@]35CC[C@]3(C)[C@@H]([C@@]6(C)CC[C@@H](C(C)(C)O)O6)[C@@H](O)C[C@@]3(C)[C@@H]5C[C@H](O[C@@H]3O[C@H](CO)[C@@H](O)[C@H](O)[C@H]3O)[C@H]4C2(C)C)OC[C@H]1O [isoAS2, isoastragaloside II] | 0.9226 ± 0.0668 | 111.94 | 1.52 | 0.94 | 1.41 | 1.00 | 1.07 | 1.18 |  |  |  |  |  |  |  |  |  |  |  |  | 
astragaloside I [AS1] | 1.0482 ± 0.0560 | 127.18 | 1.13 | 0.72 | 1.22 | 1.38 | 1.19 | 1.77 | 1.29 | 1.59 | 2.63 |  |  |  |  |  |  |  |  |  | Collagen III in cell (collagen III [2]; 0.01 μM): 1.16; Collagen III in cell (collagen III [2]; 0.1 μM): 1.08; Collagen III in cell (collagen III [2]; 1 μM): 1.18
CC(C)(O)[C@@H]1CC[C@](C)([C@H]2[C@@H](O)C[C@@]3(C)[C@@H]4C[C@H](O[C@@H]5O[C@H](CO)[C@@H](O)[C@H](O)[C@H]5O)[C@H]5C(C)(C)[C@@H](O[C@@H]6OC[C@@H](O)[C@H](O)[C@H]6O[C@@H]6O[C@H](CO)[C@@H](O)[C@H](O)[C@H]6O)CC[C@@]56C[C@@]46CC[C@]23C)O1 [AS6, astragaloside VI] | 0.8471 ± 0.0278 | 102.78 |  |  |  |  |  |  |  |  |  | 1.18 | 1.19 | 1.41 | 1.29 | 1.30 | 1.25 | 4.55 | 4.27 | 3.86 | Collagen III in cell (collagen III [2]; 0.01 μM): 1.65; Collagen III in cell (collagen III [2]; 0.1 μM): 1.37; Collagen III in cell (collagen III [2]; 1 μM): 0.95
CC(C)(O)[C@@H]1CC[C@](C)([C@H]2[C@@H](O)C[C@@]3(C)[C@@H]4C[C@H](O)[C@H]5C(C)(C)[C@@H](O[C@@H]6OC[C@@H](O)[C@H](O)[C@H]6O[C@@H]6O[C@H](CO)[C@@H](O)[C@H](O)[C@H]6O)CC[C@@]56C[C@@]46CC[C@]23C)O1 [AS3, astragaloside III] | 1.0129 ± 0.0371 | 122.90 |  |  |  | 2.18 | 1.79 | 1.51 | 0.86 | 1.22 | 2.12 |  |  |  |  |  |  |  |  |  | 
CC(=O)O[C@H]1[C@H](O[C@H]2CC[C@]34C[C@]35CC[C@]3(C)[C@@H]([C@@]6(C)CC[C@@H](C(C)(C)O)O6)[C@@H](O)C[C@@]3(C)[C@@H]5C[C@H](O[C@@H]3O[C@H](CO)[C@@H](O)[C@H](O)[C@H]3O)[C@H]4C2(C)C)OC[C@@H](OC(C)=O)[C@@H]1O [isoAS1, isoastragaloside I] | 0.9589 ± 0.0665 | 116.34 | 1.13 | 1.06 | 1.19 |  |  |  |  |  |  | 0.71 | 1.20 | 1.11 | 1.08 | 1.27 | 0.96 | 3.32 | 4.41 | 6.53 | 
CC(C)(O)[C@@H]1CC[C@](C)([C@H]2[C@@H](O)C[C@@]3(C)[C@@H]4C[C@H](O[C@@H]5O[C@H](CO)[C@@H](O)[C@H](O)[C@H]5O)[C@H]5C(C)(C)[C@@H](O[C@@H]6OC[C@@H](O)[C@H](O)[C@H]6O)CC[C@@]56C[C@@]46CC[C@]23C)O1 [AS4, astragaloside IV] | 0.8931 ± 0.0918 | 108.36 |  |  |  |  |  |  |  |  |  | 1.16 | 1.24 | 1.33 | 1.11 | 1.07 | 1.11 | 0.79 | 1.13 | 1.16 | 
CC(=O)O[C@H]1[C@H](O[C@H]2CC[C@]34C[C@]35CC[C@]3(C)[C@@H]([C@@]6(C)CC[C@@H](C(C)(C)O)O6)[C@@H](O)C[C@@]3(C)[C@@H]5C[C@H](O[C@@H]3O[C@H](CO)[C@@H](O)[C@H](O)[C@H]3O)[C@H]4C2(C)C)OC[C@@H](O)[C@@H]1O [AS2, astragaloside II] | 0.9561 ± 0.0918 | 116.00 | 0.86 | 1.14 | 1.87 | 1.26 | 1.74 | 0.94 | 1.36 | 1.44 | 1.49 | 1.02 | 1.24 | 0.73 | 1.15 | 1.26 | 1.02 |  |  |  | 
